Experimental data reported in ChEMBL document CHEMBL1201862, “PubChem BioAssay data set” (2004).
The source made the active and inactive calls.

What was measured:
[1] = inhibitors of firefly luciferase expression or activity, dose response, H4 neuroglioma cells, luminescence (AID 1990); format: functional, cell-based
[2] = luciferase reporter signal reduction – luminescence, H4-C neuroglioblastoma cells, dose response (AID 2458); format: functional, cell-based;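 further: H4 neuroglioblastoma cells stably carrying a luciferase reporter gene fusion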
BJ [3] = assay: cytotoxicity toward BJ-TERT fibroblasts, dose response, cell-based, RAS-independent, luminescence (AID 1933); format: functional; settings: Homo sapiens
[4] = target: Luciferin 4-monooxygenase (Photinus pyralis, UniProt P08659); assay: Counter Screen for Luciferase-based Assay Positives. [Related pubchem assays: 620, 618, 411 ]
[5] = target: Glyceraldehyde-3-phosphate dehydrogenase (Homo sapiens, UniProt P04406)
cells = format: functional, cell-based
[6] = Luminescence Cell-Based Dose Response HTS to Identify Inhibitors of 5'UTR Stem-Loop Driven Prion Protein mRNA Translation in H4 Neuroglioblastoma Cells. [Related pubchem assays: 1827 (Project Summary), 1813 (Primary HTS)]; format: functional
[7] = inhibitors of SNCA 5'UTR-driven reporter translation, confirmation, H4 neuroglioma cells, luminescence (AID 1988); format: functional, cell-based
BJ [8] = assay: cells; format: functional, cell-based; settings: Homo sapiens
[9] = Luminescence-based counterscreen assay for KLF5 inhibitors: dose response cell-based high throughput screening assay to identify cytotoxic compounds using the IEC-6 intestinal epithelial cell line. [Related pubchem assays: 1700 (Primary screen.), 1834 (Confirmation screen.), 1858 (Summary AID.), 1905 (Counterscreen.)]; format: functional
HT-1080 = assay: cytotoxicity in HT1080 fibrosarcoma cells, cell-based, fluorescence readout (AID 620); format: functional; settings: Homo sapiens
BJ [10] = assay: cytotoxicity toward BJ-TERT-LT-ST fibroblasts, dose response, cell-based, RAS-independent, luminescence (AID 1935); format: functional; settings: Homo sapiens;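 further: BJ fibroblasts immortalized with TERT plus LT and ST oncogenes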
[11] = cytotoxicity toward DRD oncogenic fibroblasts, dose response, cell-based, non-viral oncogenic, luminescence (AID 1934); format: functional; settings: Homo sapiens
[12] = inhibitors of SNCA 5'UTR-driven translation, confirmation, luminescence, H4 neuroglioblastoma cells, dose confirmation (AID 2454); format: functional, cell-based;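 further: H4 neuroglioblastoma cells carrying an alpha-synuclein 5'UTR luciferase reporter; potency for inhibition of the luciferase signal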
[13] = target: T1, Microphthalmia-associated transcription factor (Homo sapiens, UniProt O75030); assay: TRPM1 promoter luciferase signal decrease, dose response, MITF inhibitor project, cell-based, SK-MEL-5, cherry-picked, set 3 (AID 493073); format: functional
T1 sequence (O75030 whole entry): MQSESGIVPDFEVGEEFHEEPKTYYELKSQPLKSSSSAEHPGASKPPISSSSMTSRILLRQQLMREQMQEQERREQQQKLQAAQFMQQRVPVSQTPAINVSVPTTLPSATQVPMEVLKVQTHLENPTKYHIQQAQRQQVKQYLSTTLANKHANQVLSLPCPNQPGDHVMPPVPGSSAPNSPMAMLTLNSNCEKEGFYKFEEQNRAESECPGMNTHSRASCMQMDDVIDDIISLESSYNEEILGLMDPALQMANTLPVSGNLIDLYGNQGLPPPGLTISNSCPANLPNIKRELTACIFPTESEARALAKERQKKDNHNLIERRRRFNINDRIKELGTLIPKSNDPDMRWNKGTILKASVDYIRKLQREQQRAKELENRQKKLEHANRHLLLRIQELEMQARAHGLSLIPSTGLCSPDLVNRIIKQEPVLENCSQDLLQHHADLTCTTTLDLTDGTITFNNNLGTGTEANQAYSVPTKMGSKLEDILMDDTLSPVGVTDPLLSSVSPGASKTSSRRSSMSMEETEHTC

BJ [14] = assay: cytotoxicity toward Ras-transformed BJeLR fibroblasts, dose response, cell-based, alamar blue fluorescence, cherrypicked samples (AID 2631); format: functional; settings: Homo sapiens;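 further: confirmatory dose-response assay in RAS-dependent BJ fibroblasts engineered with TERT, LT and ST, with cytotoxicity read by fluorescence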
A-375 = assay: MITF: Counter assay: A375 proliferation Measured in Cell-Based System Using Plate Reader - 2084-03_Inhibitor_Dose_DryPowder_Activity. [Related pubchem assays (depositor defined):AID488944]; format: functional; settings: Homo sapiens
[15] = A549 cell cytotoxicity, dose response, cytotoxicity control, plate reader, cherry-pick, antagonist series (AID 743412); format: functional, cell-based
[16] = HepG2 cell cytotoxicity, dose response, cytotoxicity control, plate reader, cherry-pick, antagonist series (AID 743416); format: functional, cell-based
[17] = LGR2 antagonists, dose response, cell-based, HEK293, CRE-luciferase reporter, cherry pick, set 2 (AID 743343); format: functional;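 further: transfected cells were stimulated with diluted bursicon conditioned medium after compound addition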
[18] = MC4R antagonists, dose response, counter-screen for LGR2 antagonist project, cell-based, plate reader, cherry pick (AID 743444); format: functional;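 further: transfected HEK 293 cells stimulated with alpha-MSH peptide; potency of inhibitors of the alpha-MSH evoked signal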
[19] = HEK293 cell cytotoxicity, dose response, cytotoxicity control, plate reader, cherry-picked samples (AID 743446); format: functional, cell-based
[20] = target: Neuropeptide Y receptor type 1 (Homo sapiens, UniProt P25929); format: functional;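 further: HEK293 cells with a CNG channel challenged with NPY then isoproterenol; potency as antagonist that reverses NPY suppression of cAMP signal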
[21] = target: Neuropeptide Y receptor type 2 (Homo sapiens, UniProt P49146); format: functional, cell-based;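 further: HEK293 cells expressing the receptor and a CNG channel; stimulus was NPY near EC95 followed by isoproterenol to raise cAMP; antagonist potency measured as restoring cAMP signal that NPY suppresses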
[22] = target: T2, Alkaline phosphatase, tissue-nonspecific isozyme (Homo sapiens, UniProt P05186)
T2 sequence (P05186 whole entry): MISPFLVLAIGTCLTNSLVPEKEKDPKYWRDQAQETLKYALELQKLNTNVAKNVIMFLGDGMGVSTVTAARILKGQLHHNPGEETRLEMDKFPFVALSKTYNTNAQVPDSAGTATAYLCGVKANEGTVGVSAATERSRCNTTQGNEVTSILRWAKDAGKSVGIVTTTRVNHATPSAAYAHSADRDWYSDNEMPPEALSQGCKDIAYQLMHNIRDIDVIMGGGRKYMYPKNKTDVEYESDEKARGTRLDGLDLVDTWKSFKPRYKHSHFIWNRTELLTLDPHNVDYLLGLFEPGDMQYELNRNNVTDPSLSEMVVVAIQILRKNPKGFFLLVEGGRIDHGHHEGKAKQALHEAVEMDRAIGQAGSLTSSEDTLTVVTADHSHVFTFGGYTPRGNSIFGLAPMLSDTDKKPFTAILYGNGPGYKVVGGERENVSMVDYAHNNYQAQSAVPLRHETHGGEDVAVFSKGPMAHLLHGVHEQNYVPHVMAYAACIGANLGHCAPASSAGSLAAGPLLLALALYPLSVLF

[23] = polyadenylation inhibitors in yeast reporter, dose response, luminescence, S. cerevisiae SKY197-pL101 (AID 2525); format: functional, cell-based
[24] = Luminescence Cell-Based Dose Confirmation HTS to Identify Inhibitors of Polyadenylation.; format: functional
[25] = target: Mothers against decapentaplegic homolog 3 (Homo sapiens, UniProt P84022); assay: Smad3 binding inhibitors, lysate ELISA, dose response, cell lysate, secondary confirmation, chemiluminescent ELISA, HEK293 lysate (AID 1058); format: functional
Sequence of Mothers against decapentaplegic homolog 3 (P84022 whole entry): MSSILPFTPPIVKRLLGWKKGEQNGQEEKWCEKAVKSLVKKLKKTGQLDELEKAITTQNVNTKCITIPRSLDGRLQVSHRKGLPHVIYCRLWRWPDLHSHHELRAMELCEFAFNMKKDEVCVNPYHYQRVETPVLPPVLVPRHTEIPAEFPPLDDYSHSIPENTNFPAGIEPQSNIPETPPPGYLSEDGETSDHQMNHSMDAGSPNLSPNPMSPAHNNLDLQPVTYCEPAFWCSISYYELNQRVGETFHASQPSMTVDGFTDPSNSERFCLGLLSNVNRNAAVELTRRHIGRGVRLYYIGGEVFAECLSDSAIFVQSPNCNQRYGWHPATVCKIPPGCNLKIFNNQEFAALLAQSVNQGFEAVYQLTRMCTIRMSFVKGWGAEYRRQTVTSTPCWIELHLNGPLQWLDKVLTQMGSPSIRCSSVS

Sequence of Luciferin 4-monooxygenase (P08659 whole entry): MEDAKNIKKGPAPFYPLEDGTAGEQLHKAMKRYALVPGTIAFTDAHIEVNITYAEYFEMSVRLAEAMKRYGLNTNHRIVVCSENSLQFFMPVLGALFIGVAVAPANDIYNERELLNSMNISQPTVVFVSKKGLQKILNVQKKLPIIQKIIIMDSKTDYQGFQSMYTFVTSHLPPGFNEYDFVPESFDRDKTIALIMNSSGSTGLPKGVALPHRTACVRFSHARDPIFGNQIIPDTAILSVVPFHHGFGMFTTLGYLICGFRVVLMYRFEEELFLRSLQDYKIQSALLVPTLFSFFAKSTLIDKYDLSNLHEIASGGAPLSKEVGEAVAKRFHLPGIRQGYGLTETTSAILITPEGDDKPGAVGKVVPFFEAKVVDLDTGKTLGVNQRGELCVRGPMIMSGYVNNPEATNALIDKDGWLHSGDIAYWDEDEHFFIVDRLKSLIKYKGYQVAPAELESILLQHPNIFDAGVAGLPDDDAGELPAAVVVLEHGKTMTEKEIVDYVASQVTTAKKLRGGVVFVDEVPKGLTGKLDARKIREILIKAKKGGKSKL
Sequence of Neuropeptide Y receptor type 1 (P25929 whole entry): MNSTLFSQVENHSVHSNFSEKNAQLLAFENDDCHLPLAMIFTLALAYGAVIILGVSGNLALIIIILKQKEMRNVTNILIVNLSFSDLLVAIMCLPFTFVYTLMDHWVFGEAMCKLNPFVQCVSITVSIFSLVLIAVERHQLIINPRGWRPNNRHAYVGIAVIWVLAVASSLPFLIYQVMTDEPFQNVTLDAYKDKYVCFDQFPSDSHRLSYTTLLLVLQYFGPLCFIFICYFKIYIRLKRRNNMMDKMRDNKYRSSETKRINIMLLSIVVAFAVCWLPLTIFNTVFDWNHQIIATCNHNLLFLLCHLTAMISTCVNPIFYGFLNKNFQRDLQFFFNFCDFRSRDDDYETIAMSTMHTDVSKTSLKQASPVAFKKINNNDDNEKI
Sequence of Neuropeptide Y receptor type 2 (P49146 whole entry): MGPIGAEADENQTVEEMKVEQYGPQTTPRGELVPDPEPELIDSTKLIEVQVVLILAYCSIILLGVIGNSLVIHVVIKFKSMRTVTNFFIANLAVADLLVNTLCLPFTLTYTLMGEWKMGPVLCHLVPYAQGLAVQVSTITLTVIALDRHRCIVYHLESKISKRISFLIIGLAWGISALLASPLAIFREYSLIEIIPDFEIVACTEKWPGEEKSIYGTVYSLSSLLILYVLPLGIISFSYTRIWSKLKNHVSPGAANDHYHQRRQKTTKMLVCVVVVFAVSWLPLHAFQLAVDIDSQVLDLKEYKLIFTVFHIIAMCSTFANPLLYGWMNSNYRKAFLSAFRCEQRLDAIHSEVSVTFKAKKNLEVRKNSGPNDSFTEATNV
Sequence of Glyceraldehyde-3-phosphate dehydrogenase (P04406 whole entry): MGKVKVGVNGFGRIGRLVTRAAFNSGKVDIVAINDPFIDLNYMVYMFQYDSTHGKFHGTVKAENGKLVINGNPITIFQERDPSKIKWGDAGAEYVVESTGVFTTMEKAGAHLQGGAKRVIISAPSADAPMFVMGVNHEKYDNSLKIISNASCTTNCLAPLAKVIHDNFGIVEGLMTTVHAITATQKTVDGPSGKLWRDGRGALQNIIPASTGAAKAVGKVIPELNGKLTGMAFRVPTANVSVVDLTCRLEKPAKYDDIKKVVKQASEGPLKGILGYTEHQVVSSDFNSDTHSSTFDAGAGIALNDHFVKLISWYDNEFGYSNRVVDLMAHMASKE

**Q.** Which results are given for `Cc1ccc(-c2nnc(SCC(=O)Nc3ccccc3F)o2)cc1`?
**A.** EC50 [1]: < 0.195 µM (active); EC50 [2]: > 12 µM (inconclusive); EC50 (BJ [3]): 10.2 µM (active); EC50 [4]: 9.52 µM (active); IC50 [5]: > 100 µM (not active); EC50 (cells): 839 nM (active); EC50 [6]: < 0.1 µM (active); EC50 [7]: < 0.1 µM (active); EC50 (BJ [8]): 6.59 µM (active); IC50 [9]: 34.7 µM (not active); EC50 (HT-1080): > 50 µM (not active); EC50 (BJ [10]): 21.7 µM (active); EC50 [11]: 7.36 µM (inconclusive); EC50 [12]: > 12 µM (inconclusive); AC50 [13]: 2.3 µM (active); EC50 (BJ [14]): > 133 µM (inactive); AC50 (A-375): 33.7 µM (active); AC50 [15]: 8.7 µM (active); AC50 [16]: 12.4 µM (active); AC50 [17]: 7.12 µM (active); AC50 [18]: 14.7 µM (active); AC50 [19]: 9.16 µM (active)

**Q.** What does the source list for `COc1ccc(Cn2c(/C=C/c3ccccc3)nc3ccccc32)cc1`?
**A.** IC50 [20]: 4.02 µM (active); IC50 [21]: 5.51 µM (active)

**Q.** Which EC50 [22] does the source give for `COc1cc(C(=S)N2CCOCC2)ccc1OC(=O)/C=C/c1ccco1` here?
**A.** Its EC50 is > 100 µM (not active).

**Q.** With `O=C(Oc1c(-c2ccccc2)c(=O)n2c3c(cccc13)CC2)c1cccc([N+](=O)[O-])c1` as the compound, how does the EC50 [1] read?
**A.** The EC50 was 12 µM (active).

**Q.** And the EC50 [23]?
**A.** The EC50 was 3.89 µM (active).

**Q.** What about the EC50 [6] of the same compound?
**A.** The EC50 was 12.3 µM (active).

**Q.** What about the EC50 [7] of the same compound?
**A.** The EC50 was 13 µM (active).

**Q.** And the EC50 [24]?
**A.** Its EC50 is 9.78 µM (active).

**Q.** Which IC50 [25] does the source give for `Oc1cc2c(cc1C(c1ccc3c(c1)OCO3)N1CCCCC1)OCO2` (stereo unspecified) here?
**A.** Its IC50 is > 40 µM (not active).
